For orientation: AUC means the area under the concentration-time curve, a measure of exposure. A higher AUC goes with high exposure. As a reminder, the Cmax is the peak of the concentration-time curve.

The text below walks through data of patent US20260041744A1, “Methods for Treating Pompe Disease” (Amicus Therapeutics, Inc., priority 2022, published 2026).

Data set [1] in a line: Miglustat plasma pharmacokinetics in patients, incl. renal impairment. The data set is classed as in vivo, human. Here is the method: At the recommended 260 mg dose, the mean Cmax was approximately 3 mcg/mL and the mean AUC was approximately 25 mcg*hr/mL. The mean time to reach the maximum concentration ranged from 2 hours to 3 hours.
Plasma concentrations of miglustat increased in patients with renal impairment. Accordingly, the apparent clearance of miglustat decreased with decreasing renal function. […] In some embodiments, the dosage of miglustat in patients with moderate or severe renal impairment is reduced as compared to patients with normal renal function.

For data set [2], the system named is healthy adult men. Description: Sperm parameters in healthy adult men. The data set is classed as in vivo, human. The settings on record: 100 mg orally twice daily for 6 weeks.
In data set [3] the test system is rats. Description: Sperm characteristics and fertility in rats. The class given is in vivo, rat.
The target of data set [4] is ATB200 (Homo sapiens, UniProt P10253). Description: Thermostability assay using SYPRO Orange. The settings on record: pH 7.4.
In data set [5] the target is CIMPR (Homo sapiens, UniProt P11717). As to the kind of experiment: CIMPR affinity chromatography of rhGAA (bound vs flow-through by GAA activity). The data set is classed as binding. The settings on record: CIMPR affinity column. An excerpt:
Multiple batches of the rhGAA according to the disclosure were produced in shake flasks and in perfusion bioreactors using CHO cell line GA-ATB200, the product of which is referred to as “ATB200.” Weak anion exchange (“WAX”) liquid chromatography was used to fractionate ATB200 rhGAA according to terminal phosphate and sialic acid. Elution profiles were generated by eluting the ERT with increasing amount of salt. The profiles were monitored by UV (A280 nm).
To evaluate the ability of the conventional rhGAAs in MYOZYME® and LUMIZYME® to interact with the CIMPR, the two conventional rhGAA preparations were injected onto a CIMPR affinity column (which binds rhGAA having M6P groups) and the flow through collected. The bound material was eluted with a free M6 gradient. Fractions were collected in 96-well plate and GAA activity assayed by 4MU-α-glucosidase substrate. The relative amounts of unbound (flow through) and bound (M6P eluted) rhGAA were determined based on GAA activity and reported as the fraction of total enzyme. […] Indeed, only 27% of the rhGAA in MYOZYME® and 22% of the rhGAA in LUMIZYME® contained M6P that can be productive to target it to the CIMPR on muscle cells.

The test system of data set [6] is Gaa KO mice. As to the kind of experiment: Single fiber analysis (LAMP1/LC3 co-immunofluorescence, white gastrocnemius). The settings on record: mouse, in vivo. The class given is in vivo, mouse. The source says: FIG. 17 depicts co-immunofluorescent staining of LAMP1 (green) (see for example, “B”) and LC3 (red) (see, for example, “A”) in single fibers isolated from the white gastrocnemius of Gaa KO mice treated with a vehicle, alglucosidase alfa, or ATB200. “C” depicts clearance of autophagic debris and absence of enlarged lysosome. A minimum of 30 fibers were examined from each animal.
As a result, a significant portion of muscle fibers analyzed (36-60%) from ATB200-treated mice appeared normal or near-normal.

The test system of data set [7] is LOPD population (PROPEL target population). As to the kind of experiment: Multi-level network meta-regression (ML-NMR) indirect treatment comparison, 6MWD and FVC change from baseline at week 52. More on the design: species or system human. The settings on record: base-case scenario. As for the experimental part: Using patient-level data from the PROPEL randomized clinical trial (RCT) plus aggregate published data from other RCTs, Phase I/II and open label extension trials, a multi-level network meta-regression was conducted, adjusting for various baseline covariates including previous ERT duration. The base case scenario had covariates resembling the PROPEL population (naïve and ERT-experienced) and analyzed 6MWD and FVC change from baseline at 52 weeks.
An ITC providing relative effect estimates in the target population of interest (ie an LOPD population including a mix of ERT-naïve and ERT-experienced subjects as in the pivotal Phase III trial comparing Cipa+mig with Alglu [PROPEL]) was performed.
A systematic literature review (SLR) was conducted to identify relevant published clinical studies of ERTs in LOPD. Outcomes assessed were change from baseline in 6-minute walking distance (6MWD) (m) and in forced vital capacity (FVC; % predicted) at week 52, acknowledged by clinicians, HTA agencies and payers as key LOPD trial endpoints. Aggregate results on 6MWD and FVC change from baseline over time and baseline characteristics (age, gender, ethnicity, previous ERT duration, baseline 6MWD and baseline FVC) were extracted from included studies.
A multi-level network meta regression (ML-NMR) was performed, which is an extension of standard network meta-analyses (NMAs) that take into account the effect of study-level covariates, and that can be applied to any connected network with any mixture of individual patient-level data (IPD) and aggregate data. ML-NMR is an accepted method by the National Institute for Health and Care Excellence (NICE) in support of cost effectiveness analysis. Single-arm study results were matched to appropriate comparator arms of the comparative studies to allow for inclusion into the network. Mean treatment differences with associated 95% credible intervals (CrIs) were calculated for 6MWD and FVC change from baseline at week 52.
A base-case scenario was evaluated in which all covariates were set to the target population of the PROPEL trial. To study the impact of previous ERT duration on relative effects, ERT duration value was varied, keeping remaining covariate values as in the base-case scenario. A sensitivity analysis was performed by excluding all matched single-arm evidence from the network to assess its impact on the results.
Both fixed effects (FE) and random effects (RE) ML-NMR models were applied and the deviance information criteria (DIC) was used to assess goodness-of-fit of the models and to identify the appropriate model (FE or RE model) for the data. Models were implemented in a Bayesian framework using Stan with help of the R package multinma.
In the base-case scenario, the covariates were set to the baseline characteristics of the target population (ie the PROPEL trial; see Table 20), and time was set to 52 weeks.

In data set [8] the test system is Pompe disease patients. The conditions noted are these: ERT-experienced patients; cited from earlier work.
Data set [9] relates to adult subjects with LOPD. As to the kind of experiment: Study ATB200-07 (OLE of PROPEL): 6MWD and % predicted 6MWD. The class given is in vivo, human. The source says: (§1) The study doses and schedule are maintained from Study ATB200-03.
(§2) Efficacy data are presented in this summary as change from the baseline of Study ATB200-03 (OLE-ES Population).

The test system of data set [10] is adult subjects with LOPD. As to the kind of experiment: Study ATB200-07 (OLE): sitting % predicted FVC. The data set is classed as in vivo, human.
Text: as §1, §2

The conditions of data set [11]: in vivo.
Experimental: The ongoing open-label extension (OLE) of PROPEL (NCT04138277; ATB200-07) evaluates long-term safety and efficacy of cipa/mig. Outcomes include 6 minute walk distance (6MWD), forced vital capacity (FVC), creatine kinase (CK) and hexose tetrasaccharide (Hex4) levels and safety. Data are reported as change from the PROPEL baseline to OLE week 52 (104 weeks after the PROPEL baseline).
In data set [12] the test system is adult subjects with LOPD. As to the kind of experiment: Study ATB200-07 (OLE): CK.
Experimental: (§3) The Phase III double-blind PROPEL study (NCT03729362; ATB200-03) described in Examples 9 and 10 above compared the investigational two-component therapy cipaglucosidase alfa/miglustat (cipa/mig) with alglucosidase alfa/placebo (alglu) in adults with late-onset Pompe disease (LOPD) over 52 weeks. The ongoing open-label extension (OLE) of PROPEL (NCT04138277; ATB200-07) evaluates long-term safety and efficacy of cipa/mig. Outcomes include 6 minute walk distance (6MWD), forced vital capacity (FVC), creatine kinase (CK) and hexose tetrasaccharide (Hex4) levels and safety. Data are reported as change from the PROPEL baseline to OLE week 52 (104 weeks after the PROPEL baseline).
In data set [13] the test system is adult subjects with LOPD. Description: Study ATB200-07 (OLE): Hex4.
Experimental: as §3
Where [14] appears, read: human, plasma, oral, 260 mg dose.

Chain of CIMPR (P11717 41-2491, species assumed): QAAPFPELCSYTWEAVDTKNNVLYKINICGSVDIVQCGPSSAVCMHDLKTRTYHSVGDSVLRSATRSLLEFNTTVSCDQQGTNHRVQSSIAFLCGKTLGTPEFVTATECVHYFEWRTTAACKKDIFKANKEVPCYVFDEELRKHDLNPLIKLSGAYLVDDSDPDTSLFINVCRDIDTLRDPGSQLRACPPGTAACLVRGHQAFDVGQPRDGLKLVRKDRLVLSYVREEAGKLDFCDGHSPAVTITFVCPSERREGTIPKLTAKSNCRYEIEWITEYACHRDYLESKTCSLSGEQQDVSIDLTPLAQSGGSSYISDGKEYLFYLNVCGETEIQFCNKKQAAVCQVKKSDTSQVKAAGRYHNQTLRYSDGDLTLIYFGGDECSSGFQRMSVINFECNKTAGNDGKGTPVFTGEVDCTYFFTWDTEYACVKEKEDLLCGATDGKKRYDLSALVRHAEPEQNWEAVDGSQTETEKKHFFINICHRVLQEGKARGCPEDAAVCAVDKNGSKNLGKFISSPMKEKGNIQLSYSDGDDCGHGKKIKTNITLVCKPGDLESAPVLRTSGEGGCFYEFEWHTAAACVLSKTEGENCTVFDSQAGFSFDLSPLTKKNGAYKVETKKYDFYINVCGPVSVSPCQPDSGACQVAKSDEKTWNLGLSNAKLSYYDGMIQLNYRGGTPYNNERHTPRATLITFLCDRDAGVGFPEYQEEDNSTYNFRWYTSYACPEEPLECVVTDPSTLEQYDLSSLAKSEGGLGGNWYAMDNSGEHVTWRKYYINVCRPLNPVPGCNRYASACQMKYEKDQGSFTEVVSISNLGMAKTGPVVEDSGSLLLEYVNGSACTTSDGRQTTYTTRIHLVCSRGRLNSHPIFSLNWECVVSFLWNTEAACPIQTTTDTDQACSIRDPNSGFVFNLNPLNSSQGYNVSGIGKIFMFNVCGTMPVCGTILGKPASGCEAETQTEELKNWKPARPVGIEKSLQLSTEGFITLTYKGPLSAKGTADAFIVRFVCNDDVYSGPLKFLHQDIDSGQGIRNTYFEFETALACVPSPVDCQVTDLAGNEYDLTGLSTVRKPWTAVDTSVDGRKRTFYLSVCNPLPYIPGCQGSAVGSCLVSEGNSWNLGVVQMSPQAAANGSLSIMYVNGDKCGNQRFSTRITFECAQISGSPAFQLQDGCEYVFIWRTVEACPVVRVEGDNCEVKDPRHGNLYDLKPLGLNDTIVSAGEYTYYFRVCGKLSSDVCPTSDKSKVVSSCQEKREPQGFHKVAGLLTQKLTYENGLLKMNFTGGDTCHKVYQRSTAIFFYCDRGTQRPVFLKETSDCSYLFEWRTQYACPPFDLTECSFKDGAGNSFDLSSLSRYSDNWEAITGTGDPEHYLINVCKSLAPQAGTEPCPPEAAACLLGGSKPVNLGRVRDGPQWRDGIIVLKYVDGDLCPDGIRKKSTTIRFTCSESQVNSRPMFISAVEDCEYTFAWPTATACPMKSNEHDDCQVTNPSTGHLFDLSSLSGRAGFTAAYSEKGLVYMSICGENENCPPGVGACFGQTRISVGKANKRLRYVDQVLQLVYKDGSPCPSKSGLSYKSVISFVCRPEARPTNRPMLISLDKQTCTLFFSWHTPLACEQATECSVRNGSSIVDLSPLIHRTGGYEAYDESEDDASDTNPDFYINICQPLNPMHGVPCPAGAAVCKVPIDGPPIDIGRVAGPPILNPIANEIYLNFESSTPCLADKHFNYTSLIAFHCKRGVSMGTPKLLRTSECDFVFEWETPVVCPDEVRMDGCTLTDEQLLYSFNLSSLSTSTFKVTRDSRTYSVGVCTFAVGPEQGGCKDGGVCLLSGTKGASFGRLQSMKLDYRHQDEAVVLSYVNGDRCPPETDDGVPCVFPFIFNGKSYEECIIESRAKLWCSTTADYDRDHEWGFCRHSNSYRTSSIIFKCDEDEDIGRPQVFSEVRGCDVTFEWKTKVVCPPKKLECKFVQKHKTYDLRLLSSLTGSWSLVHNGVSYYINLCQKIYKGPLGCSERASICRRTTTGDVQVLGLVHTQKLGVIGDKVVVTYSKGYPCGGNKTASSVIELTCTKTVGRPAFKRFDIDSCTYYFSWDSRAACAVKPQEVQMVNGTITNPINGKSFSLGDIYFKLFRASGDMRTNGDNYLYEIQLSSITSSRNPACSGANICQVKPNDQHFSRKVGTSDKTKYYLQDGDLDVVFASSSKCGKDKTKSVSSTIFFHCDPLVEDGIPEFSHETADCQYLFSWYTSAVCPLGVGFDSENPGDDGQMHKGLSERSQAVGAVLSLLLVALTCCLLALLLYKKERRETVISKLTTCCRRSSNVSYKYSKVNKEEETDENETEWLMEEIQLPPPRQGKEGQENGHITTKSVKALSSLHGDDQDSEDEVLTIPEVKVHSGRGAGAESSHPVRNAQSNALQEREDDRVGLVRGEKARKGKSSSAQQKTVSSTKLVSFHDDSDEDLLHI

Consider `CCCCN1C[C@H](O)[C@@H](O)[C@H](O)[C@H]1CO` [miglustat, (2R,3R,4R,5S)-1-butyl-2-(hydroxymethyl)piperidine-3,4,5-triol], for which the “dose proportionality” value in [1] (130 mg to 260 mg) is on record as “linear pharmacokinetics”. In [1] (setting [14]), the exposure (AUC) was about 25000 ng·h/mL. Moreover, the Cmax in data set [1] (setting [14]) is about 3000 ng/mL. The figures for the “increase of AUC0-24 hr vs normal renal function” value in data set [1] (mild renal impairment (CLcr 60-89 mL/minute)), in data set [1] (moderate renal impairment (CLcr 30-59 mL/minute)) and in data set [1] (severe renal impairment (CLcr 15-29 mL/minute)) were 21%, 26% and 31%, respectively. Besides, the “effect on sperm concentration, motility, morphology” value in data set [2] was “No effect on sperm concentration, motility, or morphology”. Further, the “effect on sperm characteristics and fertility” value in data set [3] is “negatively affects sperm characteristics (motility and morphology), thereby reducing fertility”. Besides, in data set [4], the “increase of melting temperature (Tm) of ATB200 by addition of miglustat” value was about 10 °C. For the same compound, the “stabilization of ATB200” value in data set [4] is listed as “stabilized ATB200 at pH 7.4 in a concentration-dependent manner”.

“MYOZYME®: alglucosidase alfa product marketed by Sanofi Genzyme; conventional rhGAA product”: in [5] (M6P eluted), the “rhGAA bound to the CIMPR (fraction of total enzyme)” value turned out to be 27%. In addition, the “rhGAA that did not bind to the CIMPR (fraction of total enzyme)” value in [5] (flow through) is recorded as 73%. Moreover, in data set [6], the “single fiber appearance vs vehicle-treated mice” value is given as “did not show any significant difference as compared to vehicle-treated mice”.

“avalglucosidase alfa: recombinant human acid α-glucosidase, avalglucosidase alfa-ngpt; CAS 1802558-87-7”: the “relative effect, sensitivity analysis (RCT data only), 6MWT and FVC” value in data set [7] was “numerically favourable versus Alglu and placebo (6MWT and FVC)”. Also, in [8], the “long-term motor function by 6MWD after switching from alglucosidase alfa” value was “continue to experience progressive loss of motor function as assessed by 6MWD” and the “long-term pulmonary function by FVC after switching from alglucosidase alfa” value is reported as “progressive loss of pulmonary function as assessed by FVC”.

Take “cipa/mig-cipa/mig: treatment sequence: cipa/mig in PROPEL, continued cipa/mig in the open-label extension”: the “mean change in % predicted 6MWD from PROPEL baseline to week 104” value in data set [9] (ERT-experienced patients) was “+3.1”; in data set [9] (ERT-naïve patients), “+8.6 (8.57)”. The results for the “mean change in % predicted FVC from PROPEL baseline to week 104” value in [10] (ERT-experienced patients) and in data set [10] (ERT-naïve patients) were −0.6 (7.50) and −4.8 (6.48), respectively. Moreover, the “patients with treatment-emergent adverse events” value in data set [11] is listed as 98.8%. For the same compound, the “mean reduction in CK from PROPEL baseline to week 104” value in [12] (ERT-experienced patients) is on record as -132.1 (215.74) U/L; in data set [12] (ERT-naïve patients), −216.9 (243.66) U/L. Moreover, the “mean reduction in Hex4 from PROPEL baseline to week 104” value in data set [13] (ERT-experienced patients) is recorded as -1.9 (3.22) mmol/mol; in [13] (ERT-naïve patients), −2.9 (2.45) mmol/mol.
